Experimental data: ChEMBL document CHEMBL1156433, “Multiple sequential steps involved in the binding of inhibitors to cytochrome P450 3A4” (J Biol Chem, 2007)
Peptide text beside a SMILES is read from it.

Molecular target: Cytochrome P450 3A4 (Homo sapiens, UniProt P08684)
Test: Binding affinity to recombinant CYP3A4 expressed in Escherichia coli assessed as spectral dissociation constant by spectrophotometric equilibrium binding titration method
Assay type: ADME
Conditions: read-out: K

Cytochrome P450 3A4, sequence (P08684 whole entry): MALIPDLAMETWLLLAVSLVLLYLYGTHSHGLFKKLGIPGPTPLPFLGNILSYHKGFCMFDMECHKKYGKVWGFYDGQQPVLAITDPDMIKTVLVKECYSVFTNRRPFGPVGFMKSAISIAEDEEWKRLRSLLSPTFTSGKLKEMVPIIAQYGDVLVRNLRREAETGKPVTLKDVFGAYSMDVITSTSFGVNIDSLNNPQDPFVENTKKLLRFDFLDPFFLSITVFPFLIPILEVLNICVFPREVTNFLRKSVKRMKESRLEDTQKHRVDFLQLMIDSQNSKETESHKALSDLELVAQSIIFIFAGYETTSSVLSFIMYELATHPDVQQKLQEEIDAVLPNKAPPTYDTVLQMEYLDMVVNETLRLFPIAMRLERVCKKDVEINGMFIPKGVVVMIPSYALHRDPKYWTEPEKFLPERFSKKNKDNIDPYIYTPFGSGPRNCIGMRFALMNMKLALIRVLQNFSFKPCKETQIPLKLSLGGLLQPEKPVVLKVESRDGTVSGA

## NC(=O)[C@@H]1CCCN1C(=O)[C@H](Cc1ccccc1)NC(=O)[C@@H]1CCCN1C(=O)[C@@H](N)Cc1ccc(O)cc1 [MORPHICEPTIN] (H-YPFP-NH2)
  Kd: 7.8 mM
